The conditions of data set [1]: cited from earlier work.
The nature of data set [2]: Release of SF/Saf microcapsules, released Saf by UV-Vis. It counts as physicochemical. The note with it: without silk encapsulation; 10% Pluronic PE 10500 aqueous suspension; FIG. 5C. The protocol: Release of SF/Saf microcapsules: around 5 mg of different SF/Saf microcapsules were dispersed in 50 mL of 10% Pluronic PE 10500 aqueous suspension, wrapped in Al foil and under 20 rpm mind shaking. After certain time intervals, 0.75 mL of suspension was taken for UV-Vis measurement to determine the concentration of released Saf. The characteristic UV absorption peak position of Saf is around 271 nm.
All release and degradation tests were run in triplicates, and the standard errors for the analytical results were used to generate and present error bars.
The surface morphologies of microcapsules structures were investigated using a Zeiss Merlin High-resolution SEM operating at 0.8 kV for low-, medium- and high-resolution imaging. The elemental analysis was carried out on Zeiss Merlin SEM with energy-dispersive X-ray spectroscopy (EDS). Optical images of SF/DA emulsions were taken with a Nikon Eclipse TE2000-E optical microscope. The concentrations of released VC and Saf were determined by ultraviolet-visible (UV-Vis) spectroscopy on a VWR UV-1600PC spectrophotometer. Chemical structures of SF were studied with Fourier transform infrared (FTIR) spectroscopy from a Perkin Elmer Spectrum 65 spectrometer with the attenuated total reflection (ATR) accessory. […] The data was analyzed on volume-based distribution.

Converted amounts (≈) assume the structure as drawn.

Consider `CC(C)N(C)S(=O)(=O)NC(=O)c1cc(-n2c(=O)cc(C(F)(F)F)n(C)c2=O)c(F)cc1Cl` [Saf, Saflufenacil], for which the “solubility in organic solvents” value in data set [1] (organic solvents) is reported as “limited”. Besides, in data set [1] (solid powder), the “thermal decomposition T” value is “around 236 °C”. The solubility in water in data set [1] (water) was 2000 µg/mL (≈ 3.99 mM). The “burst release of Saf” value in data set [2] is listed as around 25%.

The values above are taken from US20260257186A1, “Tunable Structure of Biodegradable Silk-Based Microcapsules for Soluble and Insoluble Payload Delivery” (MASSACHUSETTS INSTITUTE OF TECHNOLOGY, priority 2021, published 2026).
